Data as given in patent publication EP2982368A1, “Small molecule compounds displacing focal adhesion core components” (Universität Konstanz, priority 2014, dated 2016).

Target: T1, FAK (Mus musculus, UniProt P34152)
T1 construct: expressed in transfected cells; host or cells: FAK-/- (p53-/-) mouse embryonic fibroblasts stably re-expressing GFP-FAK
Assay: GFP-FAK displacement from focal adhesions (fluorescence imaging, ImageJ quantification of focal adhesions per cell)
Type: cell-based
Conditions: for IC50: GFP-FAK MEFs on fibronectin, 1 h incubation, focal adhesions per cell, Hill slope model, read-out: IC50 (displacement of FAK from focal adhesions, cellular IC50); for time to FAK displacement, vinculin localization not disturbed: GFP-FAK MEFs stably expressing mKate-vinculin, 40 µM; for time to FAK displacement from focal adhesions: 20 µM, time series; for concentration sufficient to induce FAK displacement: increasing concentrations
Source text: Ectopic expression of FRNK as a dominant negative inhibitor of FAK effectively blocks FAK dependent events. This type of interference seems to be used physiologically for regulation of FAK function in certain cell types (Taylor et al. 2001). However, there is currently no possibility to instantaneously interfere with FAK localization. Therefore, the inventors sought to identify small molecules to disrupt FAK mediated protein-protein-interactions. Towards this line they set-up a High Content Screen based on FAK-/- MEFs re-expressing GFP-FAK to visualize FAK localization at focal adhesions. Cells were seeded on fibronectin and incubated to allow adherence and spreading. Prior to fixation, cell nuclei were Hoechst stained. FAK containing focal adhesions and cells per field of view were quantified using a custom-made macro for ImageJ. The macro identifies focal adhesions due to local maxima of fluorescence intensity in the GFP-channel. Cells were counted in the Hoechst channel based on a binary image. Closely connected cell nuclei were separated by a watershed algorithm. […] Next, as a proof of principle GFP-FAK MEFs were transduced to express mKate2-tagged FRNK. mKate2-FRNK localizes to focal adhesions, where it efficiently displaces GFP-FAK (Figure 2). […] Consequently, the software can correctly identify FAK displacement from focal adhesions.
In order to find small molecules which induce the specific delocalization of FAK, two commercial compound libraries with more than 17.000 entries were screened. GFP-FAK MEFs were seeded on fibronectin in multi-well plates and compounds were transferred to the cells with a robot to a final concentration of 40 µM. Cells were incubated for 4 h and nuclei were Hoechst stained prior to fixation. Cells were imaged with an automated microscope and data were analyzed with the ImageJ macro. In the first screening round the macro identified 108 hits, which were curated by visual inspection to exclude instances of dramatic cell rounding and/or detachment. […] To validate these primary hits the inventors transduced the GFP-FAK MEFs to stably express mKate-vinculin, which serves as a FAK-independent marker of focal adhesions and facilitates indication of specific FAK displacement. On a first approach two compounds were identified, which induced FAK displacement within less than 1 h, while vinculin localization was not disturbed (Figure 4). […] Strikingly, they share distinct structural characteristics since both compounds have a NO2-group and an isosteric halogen-substituted phenyl- or thiophene-group (Figure 5).
In order to investigate the kinetics of FAK displacement at focal adhesions a time series was performed. GFP-FAK MEFs were treated with 20 µM of Mb31 or Mb36 and fixed after different time points. […] Mb36 kinetic was slightly slower with FAK delocalization after 20 min. In addition, GFP-FAK MEFs were treated with increasing concentrations of Mb31 or Mb36 to determine the minimum concentration required to interfere with FAK localization. Untreated or solvent (DMSO) treated cells show the expected localization of FAK at focal adhesions. […] Already 2 µM of Mb31 were sufficient to induce FAK displacement. […] Due to the faster kinetic and lower IC50 compared to Mb36 further studies were mainly performed using Mb31. […] In contrast, vinculin localization and the focal adhesion localization of talin, α-actinin, and zyxin is not disturbed (Figure 5 and Table 1).
About 17.000 compounds (40 µM working concentration) were screened for their ability to displace GFP-FAK from focal adhesions (FA) using an automated microscope (ImageXpress Micro, Molecular Devices, Ismaning, Germany) equipped with a Nikon 20x/0.75 NA CFI Plan Apo objective. […]

T1 sequence (P34152 whole entry): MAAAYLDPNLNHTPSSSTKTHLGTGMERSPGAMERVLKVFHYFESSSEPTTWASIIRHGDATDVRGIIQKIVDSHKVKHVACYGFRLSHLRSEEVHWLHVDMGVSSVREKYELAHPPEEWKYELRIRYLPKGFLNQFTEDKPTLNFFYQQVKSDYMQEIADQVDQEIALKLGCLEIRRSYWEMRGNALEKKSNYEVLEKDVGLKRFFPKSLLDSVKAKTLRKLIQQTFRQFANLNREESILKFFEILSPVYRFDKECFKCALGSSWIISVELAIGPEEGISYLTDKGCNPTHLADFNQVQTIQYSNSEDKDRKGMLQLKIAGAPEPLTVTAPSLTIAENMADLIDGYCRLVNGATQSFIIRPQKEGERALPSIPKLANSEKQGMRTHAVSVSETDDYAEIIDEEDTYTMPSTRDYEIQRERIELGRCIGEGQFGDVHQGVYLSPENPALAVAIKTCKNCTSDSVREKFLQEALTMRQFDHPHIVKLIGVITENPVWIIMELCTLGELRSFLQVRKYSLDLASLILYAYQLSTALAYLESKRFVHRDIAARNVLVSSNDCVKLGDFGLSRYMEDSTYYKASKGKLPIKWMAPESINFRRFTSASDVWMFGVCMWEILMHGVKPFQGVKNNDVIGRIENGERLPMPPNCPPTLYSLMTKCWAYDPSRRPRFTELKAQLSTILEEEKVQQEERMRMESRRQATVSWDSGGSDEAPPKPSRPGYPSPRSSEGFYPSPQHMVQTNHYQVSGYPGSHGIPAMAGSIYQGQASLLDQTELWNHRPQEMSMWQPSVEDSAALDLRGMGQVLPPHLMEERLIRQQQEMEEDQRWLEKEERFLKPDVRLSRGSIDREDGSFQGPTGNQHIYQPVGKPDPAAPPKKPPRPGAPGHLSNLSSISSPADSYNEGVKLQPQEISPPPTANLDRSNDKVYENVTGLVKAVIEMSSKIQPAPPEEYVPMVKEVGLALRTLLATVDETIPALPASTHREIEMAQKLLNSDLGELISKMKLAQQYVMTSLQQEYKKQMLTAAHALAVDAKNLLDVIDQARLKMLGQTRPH

| IC50 | time to FAK displacement, vinculin localization not disturbed | time to FAK displacement from focal adhesions (GFP-FAK MEFs) | concentration sufficient to induce FAK displacement (GFP-FAK MEFs) | concentration sufficient for efficient FAK displacement (second approach, narrower concentration range (1-5 µM)) | effect on FAK localization (GFP-FAK MEFs, 2 µM) | SMILES |
| --- | --- | --- | --- | --- | --- | --- |
| ~2 µM | less than 1 h | ≤ 5 min | 2 µM | about 4 µM | – | O=[N+]([O-])C=Cc1cc(Br)cs1 [FootLocker 1, 4-bromo-2-(2-nitrovinyl)thiophene] |
| ~4.1 µM | less than 1 h | 20 min | 5 µM | – | no effect was observed | Nc1ccc(SC(C[N+](=O)[O-])c2ccc(Cl)cc2)cc1 (stereo not shown) [FootLocker 2, 4-{[1-(4-chlorophenyl)-2-nitroethyl]thio}aniline] |
